The subject of data set [1] is Human ovarian adenocarcinoma cells (OVCAR-3). The data set can be described thus: Cytotoxicity assay (MTS), OVCAR-3. The format is cell-based. As to the method: (§1) Human ovarian adenocarcinoma cells (OVCAR-3) (5×10^3 cells/well) and RAW 264.7 mouse macrophages (2×10^4 cells/well) were plated in 96-well plate in RPMI-1640 medium and Dulbecco's Modified Eagle's Medium (DMEM) (20% and 10% fetal bovine serum, for the OVCAR-3 and RAW 264.7, respectively and 1% penicillin/streptomycin). […] The paclitaxel conjugate was prepared as described previously, and the Taxol®-mimicking formulation was prepared in similar composition to Taxol® (i.e. Cremophor-EL and ethanol, 1:1 v/v). For each well, 20 μL of every formulation was added to 100 μL of the medium. The cells were incubated with the formulations for 72 h and washed once with phosphate-buffered saline (PBS) and 100 μL of the complete medium was added to the cells. 20 μL of the MTS combined reagent was added to each well (Cell Titer 96® Aqueous Non-Radioactive Cell Proliferation Assay, Promega Co., Madison, Wis.). […] Absorbance was measured at 490 nm using SpectraMax M5 (Molecular Devices Co., Sunnyvale, Calif.). The cell viability was calculated based on the relative absorbance to the control untreated cells. The IC50 values were calculated using GraphPad Prism four-parameter fit, considering the 0% and 100% viabilities correspond to the medium control (no cells) and cells-treated with PBS, respectively.

Data set [2] deals with RAW 264.7 mouse macrophages. The data set can be described thus: Cytotoxicity assay (MTS), RAW 264.7. Type of data set: cell-based. As to the method: as §1
Data set [3] has as its system KB cells, a human nasal pharyngeal cancer cell line. The data set can be described thus: Cell viability (WST-1), KB cells. Type of data set: cell-based. To be noted: Table 1, 72 h, PTX as free PTX. As to the method: Polymer paclitaxel and free paclitaxel were tested in KB cells, a human nasal pharyngeal cancer cell line and A549 cells, a human lung carcinoma cell line. KB and A549 cells (ATCC, Manassas, Va.) were maintained in monolayer cultures in folate free RPMI (Life Technologies, Carlsbad, Calif.) and F-12K media (Mediatech, Manassas, Va.) respectively, supplemented with 10% fetal bovine serum and penicillin/streptomycin antibiotics. For screening purposes 2,500 cells in 100 μL of complete cell culture media were plated in a 96 well plate (Corning, Lowell, Mass.) in triplicates and were then incubated for 24 h in a humidified CO2 cell culture incubator maintained at 37° C. Serial dilutions of polymer-paclitaxel conjugates and paclitaxel were prepared in PBS and added to cells in a volume of 10 μL. The cells were either incubated for a short period of 2 h or for longer continuous incubation of 72 h. After 2 h incubation, the media was replaced with 110 μL of fresh complete RPMI. Cell viability was assessed by using a colorimetric WST-1 cell proliferation kit (Roche, Indianapolis, Ind.) and following manufacturer's instructions. Cell viability was calculated as a percentage of the control cells treated with no drugs. […]
(In general: Formazan colour is commonly taken as a measure of viable cells.)

The nature of data set [4]: Saturate concentration of PTX in PBS buffer by UV. The format is physicochemical. As to the method:
The saturate concentration is around 1.7 ug/mL. PTX concentrations as low as 6.25 ng/mL were detected.

Molecules are shown by their SMILES. Read-outs that look alike come from different tables or passages of the source.

As for `CC(=O)O[C@H]1C(=O)[C@@]2(C)[C@H]([C@H](OC(=O)c3ccccc3)[C@]3(O)C[C@H](OC(=O)[C@H](O)[C@@H](NC(=O)c4ccccc4)c4ccccc4)C(C)=C1C3(C)C)[C@]1(OC(C)=O)CO[C@@H]1C[C@@H]2O` [PTX, paclitaxel], the IC50 (usually the midpoint of a concentration-inhibition curve) in data set [1] (Table 1, 72 h, PTX as Taxol®-mimicking formulation (Cremophor-EL and ethanol, 1:1 v/v), read-out: IC50 (μM) OVCAR-3) was 0.007 µM; in data set [1] (Table 2, 72 hours, PTX as Taxol-mimicking formulation, read-out: IC50 (μM)in OVCAR-3) it was 0.007 µM; in data set [2] (RAW264.7, Table 1, 72 h, PTX as Taxol®-mimicking formulation (Cremophor-EL and ethanol, 1:1 v/v), read-out: IC50 (μM) RAW 264.7) it was 0.044 µM; in data set [2] (RAW264.7, Table 2, 72 hours, PTX as Taxol-mimicking formulation, read-out: IC50 (μM) in RAW 264.7), 0.04 µM; in data set [3] it was 0.0044 µM. The “saturate concentration of PTX” value in data set [4] is recorded as “around 1.7 ug/mL”.

The record behind these values is patent US9545447B2, “Polymer-drug systems” (THE TEXAS A&M UNIVERSITY SYSTEM, priority 2013, dated 2017).
